Source: PubChem BioAssay (NCI)
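How tested: cells in 96-well plates exposed to compound for 48 hours at five concentrations. Here, GI50 denotes the concentration required for 50% inhibition of growth. TGI: total growth inhibition.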

Key:
Assay in all cases: NCI anticancer screen, dose series, 48 h
[1] = tested on: 786-0 renal
[2] = tested on: A498 renal
[3] = tested on: A549 NSCLC
[4] = tested on: ACHN renal
[5] = tested on: CAKI-1 renal
[6] = tested on: CCRF-CEM leukemia
[7] = tested on: COLO 205 colon
[8] = tested on: DLD-1 colon
[9] = tested on: DMS 114 small cell lung
[10] = tested on: DMS 273 small cell lung
[11] = tested on: EKVX NSCLC
[12] = tested on: HCC-2998 colon
[13] = tested on: HCT-116 colon
[14] = tested on: HCT-15 colon
[15] = tested on: HL-60(TB) leukemia
[16] = tested on: HOP-18 NSCLC
[17] = tested on: HOP-62 NSCLC
[18] = tested on: HT29 colon
[19] = tested on: IGROV1 ovarian
[20] = tested on: K-562 leukemia
[21] = tested on: KM12 colon
[22] = tested on: KM20L2 colon
[23] = tested on: LOX IMVI melanoma
[24] = tested on: LXFL 529 NSCLC
[25] = tested on: M14 melanoma
[26] = tested on: M19-MEL melanoma
[27] = tested on: MALME-3M melanoma
[28] = tested on: MOLT-4 leukemia
[29] = tested on: NCI-H226 lung
[30] = tested on: NCI-H23 lung
[31] = tested on: NCI-H522 lung
[32] = tested on: OVCAR-3 ovarian
[33] = tested on: OVCAR-4 ovarian
[34] = tested on: OVCAR-5 ovarian
[35] = tested on: OVCAR-8 ovarian
[36] = tested on: RPMI-8226 leukemia
[37] = tested on: RXF 393 renal
[38] = tested on: SF-268 CNS
[39] = tested on: SF-295 CNS
[40] = tested on: SF-539 CNS
[41] = tested on: SK-MEL-2 melanoma
[42] = tested on: SK-MEL-28 melanoma
[43] = tested on: SK-MEL-5 melanoma
[44] = tested on: SK-OV-3 ovarian
[45] = tested on: SN12C renal
[46] = tested on: SNB-19 CNS
[47] = tested on: SNB-75 CNS
[48] = tested on: SNB-78 CNS
[49] = tested on: SW-620 colon
[50] = tested on: TK-10 renal
[51] = tested on: UACC-257 melanoma
[52] = tested on: UACC-62 melanoma
[53] = tested on: UO-31 renal
[54] = tested on: XF 498 CNS
[55] = tested on: HOP-92 NSCLC
[56] = tested on: NCI-H460 lung
[57] = tested on: SR leukemia
[58] = tested on: U251 CNS

[O-]c1ccccc1/C=N/c1nccs1.[O-]c1ccccc1/C=N/c1nccs1.[O]=[U+2]=[O]
GI50 [1]: 25 µM
TGI [1]: > 100 µM
GI50 [2]: 26.2 µM
TGI [2]: > 100 µM
GI50 [3]: > 100 µM
TGI [3]: > 100 µM
GI50 [4]: > 100 µM
TGI [4]: > 100 µM
GI50 [5]: 37.9 µM
TGI [5]: > 100 µM
GI50 [6]: > 100 µM
TGI [6]: > 100 µM
GI50 [7]: > 100 µM
TGI [7]: > 100 µM
GI50 [8]: 22.4 µM
TGI [8]: > 100 µM
GI50 [9]: 11.1 µM
TGI [9]: > 100 µM
GI50 [10]: 7.15 µM
TGI [10]: > 100 µM
GI50 [11]: > 100 µM
TGI [11]: > 100 µM
GI50 [12]: 75.1 µM
TGI [12]: > 100 µM
GI50 [13]: 11.5 µM
TGI [13]: > 100 µM
GI50 [14]: 22.2 µM
TGI [14]: > 100 µM
GI50 [15]: 35.5 µM
TGI [15]: > 100 µM
GI50 [16]: 5.75 µM
TGI [16]: > 100 µM
GI50 [17]: > 100 µM
TGI [17]: > 100 µM
GI50 [18]: > 100 µM
TGI [18]: > 100 µM
GI50 [19]: 42.4 µM
TGI [19]: > 100 µM
GI50 [20]: 57.1 µM
TGI [20]: > 100 µM
GI50 [21]: > 100 µM
TGI [21]: > 100 µM
GI50 [22]: > 100 µM
TGI [22]: > 100 µM
GI50 [23]: 25.7 µM
TGI [23]: > 100 µM
GI50 [24]: 29.1 µM
TGI [24]: > 100 µM
GI50 [25]: > 100 µM
TGI [25]: > 100 µM
GI50 [26]: > 100 µM
TGI [26]: > 100 µM
GI50 [27]: > 100 µM
TGI [27]: > 100 µM
GI50 [28]: 27.4 µM
TGI [28]: > 100 µM
GI50 [29]: > 100 µM
TGI [29]: > 100 µM
GI50 [30]: > 100 µM
TGI [30]: > 100 µM
GI50 [31]: 61.4 µM
TGI [31]: > 100 µM
GI50 [32]: > 100 µM
TGI [32]: > 100 µM
GI50 [33]: > 100 µM
TGI [33]: > 100 µM
GI50 [34]: > 100 µM
TGI [34]: > 100 µM
GI50 [35]: > 100 µM
TGI [35]: > 100 µM
GI50 [36]: 37.7 µM
TGI [36]: > 100 µM
GI50 [37]: > 100 µM
TGI [37]: > 100 µM
GI50 [38]: > 100 µM
TGI [38]: > 100 µM
GI50 [39]: > 100 µM
TGI [39]: > 100 µM
GI50 [40]: 23.6 µM
TGI [40]: > 100 µM
GI50 [41]: > 100 µM
TGI [41]: > 100 µM
GI50 [42]: > 100 µM
TGI [42]: > 100 µM
GI50 [43]: > 100 µM
TGI [43]: > 100 µM
GI50 [44]: > 100 µM
TGI [44]: > 100 µM
GI50 [45]: > 100 µM
TGI [45]: > 100 µM
GI50 [46]: 12.7 µM
TGI [46]: > 100 µM
GI50 [47]: > 100 µM
TGI [47]: > 100 µM
GI50 [48]: > 100 µM
TGI [48]: > 100 µM
GI50 [49]: 99.8 µM
TGI [49]: > 100 µM
GI50 [50]: 33.6 µM
TGI [50]: 78.7 µM
GI50 [51]: > 100 µM
TGI [51]: > 100 µM
GI50 [52]: > 100 µM
TGI [52]: > 100 µM
GI50 [53]: 37.4 µM
TGI [53]: > 100 µM
GI50 [54]: 98.9 µM
TGI [54]: > 100 µM

C/C(CCn1[nH]c(=O)ccc1=O)=N\N=C(N)N
TGI [1]: > 100 µM
TGI [2]: > 100 µM
TGI [3]: > 100 µM
TGI [4]: > 100 µM
TGI [5]: > 100 µM
TGI [6]: > 100 µM
TGI [8]: > 100 µM
TGI [9]: > 100 µM
TGI [10]: > 100 µM
TGI [11]: > 100 µM
TGI [12]: > 100 µM
TGI [13]: > 100 µM
TGI [14]: > 100 µM
TGI [15]: > 100 µM
TGI [16]: > 100 µM
TGI [17]: > 100 µM
TGI [55]: > 100 µM
TGI [18]: > 100 µM
TGI [19]: > 100 µM
TGI [20]: > 100 µM
TGI [21]: > 100 µM
TGI [22]: > 100 µM
TGI [23]: > 100 µM
TGI [24]: > 100 µM
TGI [25]: > 100 µM
TGI [26]: > 100 µM
TGI [27]: > 100 µM
TGI [28]: > 100 µM
TGI [29]: > 100 µM
TGI [30]: > 100 µM
TGI [56]: > 100 µM
TGI [32]: > 100 µM
TGI [33]: > 100 µM
TGI [34]: > 100 µM
TGI [35]: > 100 µM
TGI [36]: > 100 µM
TGI [37]: > 100 µM
TGI [38]: > 100 µM
TGI [39]: > 100 µM
TGI [40]: > 100 µM
TGI [41]: > 100 µM
TGI [42]: > 100 µM
TGI [43]: > 100 µM
TGI [45]: > 100 µM
TGI [46]: > 100 µM
TGI [47]: > 100 µM
TGI [48]: > 100 µM
TGI [57]: > 100 µM
TGI [49]: > 100 µM
TGI [50]: > 100 µM
TGI [51]: > 100 µM
TGI [52]: > 100 µM
TGI [53]: > 100 µM
TGI [54]: > 100 µM

COc1ccc(N2C(=O)C3CC(c4ccc(C)cc4)c4c([nH]c5ccccc45)C3C2=O)cc1 (stereo not given)
TGI [1]: 26.6 µM
TGI [2]: 55.6 µM
TGI [3]: 43.3 µM
TGI [4]: > 63.8 µM
TGI [5]: > 100 µM
TGI [6]: > 45.6 µM
TGI [7]: > 48.5 µM
TGI [8]: > 100 µM
TGI [9]: > 86 µM
TGI [10]: > 100 µM
TGI [11]: > 100 µM
TGI [12]: > 100 µM
TGI [13]: 17.2 µM
TGI [14]: > 89.7 µM
TGI [15]: 30.9 µM
TGI [16]: 10.3 µM
TGI [17]: 53.7 µM
TGI [55]: 73.7 µM
TGI [18]: > 100 µM
TGI [19]: > 79.6 µM
TGI [20]: > 100 µM
TGI [21]: > 100 µM
TGI [22]: > 100 µM
TGI [23]: 26.4 µM
TGI [24]: > 56.1 µM
TGI [25]: > 89.2 µM
TGI [26]: > 100 µM
TGI [27]: 49.6 µM
TGI [28]: > 58.7 µM
TGI [29]: 28.1 µM
TGI [30]: > 93.9 µM
TGI [56]: 31.8 µM
TGI [31]: 51 µM
TGI [32]: 12.3 µM
TGI [33]: 27.5 µM
TGI [34]: > 100 µM
TGI [35]: 38.9 µM
TGI [38]: > 76.3 µM
TGI [39]: > 86.8 µM
TGI [40]: > 62.5 µM
TGI [41]: > 100 µM
TGI [42]: 99.7 µM
TGI [43]: > 100 µM
TGI [44]: 93 µM
TGI [45]: 31.8 µM
TGI [46]: > 56.3 µM
TGI [47]: 51 µM
TGI [48]: 98.7 µM
TGI [57]: 4.55 µM
TGI [49]: > 55.3 µM
TGI [50]: > 95.3 µM
TGI [58]: 16.8 µM
TGI [51]: > 100 µM
TGI [52]: > 100 µM
TGI [53]: > 70.7 µM
TGI [54]: > 74 µM

CN(C)CC1CCC(=C2CCCC2)C1=O (stereo not given)
TGI [1]: 19.7 µM
TGI [2]: 35.4 µM
TGI [3]: 39.8 µM
TGI [4]: 21.4 µM
TGI [5]: > 100 µM
TGI [6]: 9.54 µM
TGI [7]: 33.4 µM
TGI [8]: 7.02 µM
TGI [9]: 25 µM
TGI [10]: 34.8 µM
TGI [11]: 34.7 µM
TGI [12]: 32.5 µM
TGI [13]: 29.3 µM
TGI [14]: 15.9 µM
TGI [15]: 15.4 µM
TGI [16]: 31.2 µM
TGI [17]: 19.1 µM
TGI [55]: 20.1 µM
TGI [18]: 32.6 µM
TGI [19]: 34.4 µM
TGI [20]: 8.76 µM
TGI [21]: 25.6 µM
TGI [22]: 36.3 µM
TGI [23]: 31.8 µM
TGI [24]: 12.6 µM
TGI [25]: 23.3 µM
TGI [26]: 32.9 µM
TGI [27]: 11 µM
TGI [28]: > 20.7 µM
TGI [29]: 32.2 µM
TGI [30]: 36.3 µM
TGI [56]: 45.8 µM
TGI [31]: 3.39 µM
TGI [32]: 26.3 µM
TGI [33]: 31 µM
TGI [34]: 30.9 µM
TGI [35]: 39.1 µM
TGI [36]: 4.81 µM
TGI [37]: 27.9 µM
TGI [38]: 26.4 µM
TGI [39]: > 100 µM
TGI [40]: 40 µM
TGI [41]: 33.5 µM
TGI [42]: 27.4 µM
TGI [43]: 32 µM
TGI [44]: > 100 µM
TGI [45]: 24.9 µM
TGI [46]: > 100 µM
TGI [47]: 30.7 µM
TGI [48]: 34.4 µM
TGI [57]: 21.1 µM
TGI [49]: > 20.9 µM
TGI [50]: 25.2 µM
TGI [51]: 31.8 µM
TGI [52]: 31.4 µM
TGI [53]: 32.3 µM
TGI [54]: 12.4 µM
